Reference: patent publication US12415926B2, “Small tunable fluorophores for the detection and imaging of biomolecules” (The University Court of the University of Edinburgh, priority 2019, dated 2025)

Legend:
GLUT2 = test: Zebrafish in vivo imaging of glucose uptake; conditions: 28 hpf, 50 pmol into yolk sac
Method: (§1) A-F) Green (GLUT4-EGFP), red (SCOTfluor-89, 100 μM) and merged (Hoechst 33342) images of HeLa cells without additional glucose (A-C) and in media containing 5 mM D-glucose ([…]). White arrows identify co-localization of GLUT4-EGFP and SCOTfluor-89. Scale bar: 10 μm. G) Fluorescence emission spectra of BFP (blue), GFP (green) and SCOTfluor-89 (red). H) Insulin-dependent (100 nM, 1 h) uptake of SCOTfluor-89 (red, 100 μM) in GLUT4-EGFP HeLa cells. I) Chemical structures of compounds SCOTfluor-54 and SCOTfluor-89. J) In vivo images of the head in zebrafish embryos (28 hpf) after injection of SCOTfluor-54 or SCOTfluor-89 (both 50 pmol) to the yolk sac (blue arrowheads). Fluorescence images were taken of wildtype zebrafish or zebrafish that had been injected at one cell stage with 4.2 ng anti-sense glut2 morpholino. Yellow arrows point at midbrain and hindbrain regions within the zebrafish embryo heads. Scale bar: 100 μm.
Anti-sense glut2 morpholino (5′-ATGACCTGCAGAC AACAAGGACACC-3′)^1 was reconstituted to 1 mM in nuclease-free H2O and injected at 4.2 ng/embryo into the one-cell stage. Embryos were maintained at 28.5° C., according to standard protocols. Wild-type controls and glut2 morphants were injected into the yolk sac at 28 hours post fertilization (hpf) with compound SCOTfluor-89 (50 pmol) and 1 mg mL^−1 10,000 MW Dextran Cascade Blue® (ThermoFisher), then embedded in 1% low-melting point agarose for live imaging. Live imaging was performed 30 min post-injection on an inverted Leica SP8 confocal microscope using a HC PL APO CS2 10×/0.40 dry lens. Dextran was excited at 405 nm laser and detected at 415-480 nm, while compound SCOTfluor-89 was excited at 488 nm and detected at 498-600 nm.
It was also examined whether SCOTfluors could be used to image in vivo tissues with high metabolic activity. Fluorescent deoxyglucose tracers can monitor glucose uptake in metabo-lically-active cells and tissues, although few have been reported for in vivo use. Herein synthesized compound SCOTfluor-89 was synthetized as an in vivo-compatible glucose analog by nucleophilic substitution of nitrobenzoselenadiazole with 2-deoxyglucosamine. […] The transport of SCOTfluor-89 in HeLa cells transfected with EGFP-tagged GLUT4, the main glucose transporter in mammalian cells was examined. […] Finally, compound SCOTfluor-89 was tested in vivo in zebrafish embryos to visualize regions of high glucose uptake. […] We confirmed that the staining was dependent on the active transport of SCOTfluor-89 through GLUT2 by examining glut2 morpholino-injected zebrafish, which have reduced levels of GLUT2.

[1] = Optical properties of SCOTfluors (absorbance, emission, extinction coefficient, quantum yield, solvatochromism); assay type: physicochemical
Method: All compounds were dissolved in different organic solvents, including toluene, chloroform, tetrahydrofuran, ethanol, DMSO and water (final concentrations: 10-50 μM). Fluorescence spectra were acquired on a spectrophotometer upon excitation at their maxima absorbance wavelengths.
The optical properties of SCOTfluor-80, 79, 78, 76 and 81 were compared with the properties of the original NBD.

HeLa cells = test: Cytotoxicity assay in HeLa cells; conditions: 100 μM and 75 μM (1% DMSO), 4 h at 37° C.
Method: Cell viabilities were normalized to incubation in cell culture media under the same experimental conditions. A solution of 40% DMSO in cell culture media was used as a known cytotoxic positive control. Values represented as means±s.e.m. (n=3).

GLUT4 = biological target: T1, GLUT4 (Homo sapiens, UniProt P14672); test: Uptake in GLUT4-EGFP transfected HeLa cells (fluorescence microscopy); assay type: cell-based; conditions: 100 μM
T1 construct: PYP (photoactive yellow protein tag); HA; expressed in transfected cells; host or cells: HeLa
T1 sequence (P14672 1-509): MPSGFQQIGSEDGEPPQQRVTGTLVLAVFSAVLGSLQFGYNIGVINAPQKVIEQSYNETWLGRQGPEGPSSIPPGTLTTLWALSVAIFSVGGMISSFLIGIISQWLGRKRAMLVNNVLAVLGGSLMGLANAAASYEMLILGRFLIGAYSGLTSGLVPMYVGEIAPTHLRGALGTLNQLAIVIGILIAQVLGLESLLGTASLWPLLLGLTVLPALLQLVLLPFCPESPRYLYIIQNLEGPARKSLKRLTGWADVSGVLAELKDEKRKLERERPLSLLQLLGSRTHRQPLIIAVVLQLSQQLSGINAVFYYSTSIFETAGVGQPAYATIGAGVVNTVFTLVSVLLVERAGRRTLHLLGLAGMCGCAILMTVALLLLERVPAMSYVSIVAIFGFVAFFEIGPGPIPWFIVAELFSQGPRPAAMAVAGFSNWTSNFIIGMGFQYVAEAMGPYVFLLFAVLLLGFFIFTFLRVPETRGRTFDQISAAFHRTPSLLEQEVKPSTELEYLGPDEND
Method: as §1
(§2) A549 and HeLa cells were obtained from LGC Standards and cultured in Dulbecco's modified Eagle's medium (DMEM) supplemented with 10% FBS, 100 U mL^−1 penicillin and 0.1 mg mL^−1 streptomycin. For transfection experiments, HeLa cells were transfected with pcDNA-PYP-GLUT4-HA-EGFP. Amplification of plasmid-DNA was performed by transformation of competent E. coli DH5a, followed by isolation of pcDNA-PYP-GLUT4-HA-EGFP using GeneJet Plasmid Miniprep kit (ThermoFisher) according to the manufacturer's instructions. Prior to transfection, pcDNA concentration was determined using NanoDrop. Transfection of HeLa cells was performed according to manufacturer's protocol with 1 μg pcDNA-PYP-GLUT4-HA-EGFP using Lipofectamine 3000. Non-transfected as well as transfected cells were maintained at 37° C. and 5% CO2 throughout the imaging experiments.
Confocal fluorescence microscopy was performed on a confocal Leica SP5 or a spinning disk microscope with excitation at 488 nm (ER Tracker, LysoTracker, EGFP & SCOTfluor-89), 561 nm (SCOTfluor-101) and 405 nm (Hoechst 33342). […]

[2] = Emission of SCOTfluor-101 in PBS/water and in liposomes; assay type: physicochemical
A549 cells = test: Time-lapse confocal microscopy co-localization with ER and lysosome markers; assay type: cell-based, human; conditions: 50 μM
Method: C) Time-lapse confocal microscopy images of A549 cells treated with SCOTfluor-101 (50 μM, red), LysoTracker Blue (magenta) and ER Tracker Green (green) after 15 min (co-localization: white arrows) and 3 h (co-localization: yellow arrows). Total co-localization coefficients (R) were determined using ImageJ. Scale bar: 15 μm.
as §2
Confocal fluorescence microscopy was performed on a confocal Leica SP5 or a spinning disk microscope with excitation at 488 nm (ER Tracker, LysoTracker, EGFP & SCOTfluor-89), 561 nm (SCOTfluor-101) and 405 nm (Hoechst 33342). Prior to time-lapse imaging and imaging of HeLa cells, cells were incubated in Krebs-Ringer bicarbonate buffer (KRB) (129 mM NaCl, 4.7 mM KCl, 1.2 mM KH2PO4, 5 mM NaHCO3, 10 mM HEPES; 2.5 mM CaCl2, 1.2 mM MgCl2 and 0.2% BSA, pH 7.4) at 37° C. for 3 h. When appropriate, HeLa cells were washed and imaged in KRB with 1 μM Hoechst 33342 at 37° C., 5% CO2.
Then, the properties of SCOTfluors for imaging the trafficking of essential metabolites under physiological conditions. […] This property was exploited to visualize the recycling of ceramide SCOTfluor-101 in real time in human A549 cells using fluorescence confocal microscopy. […]

[3] = glut2 morpholino-injected zebrafish embryos

Molecule | Φ [1] | ε [1] | λabs. [1] [nm] | λem. [1] [nm] | cytotoxicity (cell viability) (HeLa cells) | also measured
CCN(CC)c1ccc([N+](=O)[O-])c2n[se]nc12 [SCOTfluor-54] | – | – | – | – | – | in vivo fluorescence staining (GLUT2; [3]): no tissue-specific staining; in vivo fluorescence staining (GLUT2; wildtype zebrafish embryos): no tissue-specific staining
CCCNc1ccc([N+](=O)[O-])c2n[se]nc12 [SCOTfluor-76] | 0.20 | 16,300 M^−1cm^−1 | 510 | 606 | no significant cytotoxicity | –
CCCNc1ccc([N+](=O)[O-])c2nsnc12 [SCOTfluor-78] | 0.54 | 14,600 M^−1cm^−1 | 476 | 548 | – | –
CCCNc1ccc([N+](=O)[O-])c2n[nH]nc12 [SCOTfluor-79] | <0.01 | 37,300 M^−1cm^−1 | 420 | 460 | – | –
CCCNc1ccc([N+](=O)[O-])c2c1=NC(C)(C)N=2 [SCOTfluor-80] | 0.09 | 27,300 M^−1cm^−1 | 564 | 650 | – | –
CCCNc1ccc([N+](=O)[O-])c2c1=NC1(CCCCC1)N=2 [SCOTfluor-81] | 0.11 | 28,300 M^−1cm^−1 | 546 | 650 | no significant cytotoxicity | –
O=[N+]([O-])c1ccc(N[C@H]2C(O)O[C@H](CO)[C@@H](O)[C@@H]2O)c2n[se]nc12 (stereo partly drawn) [SCOTfluor-89, (3R,4R,5S,6R)-6-(hydroxymethyl)-3-((7-nitrobenzo[c][1,2,5]selenadiazol-4-yl)amino)tetrahydro-2H-pyran-2,4,5-triol] | – | – | – | – | no significant cytotoxicity | Stokes shift [1]: 115 nm; emission [1]: around 605 nm; transport by GLUT4 (GLUT4): functional substrate of GLUT4; uptake under competition with excess glucose (GLUT4; 5 mM D-glucose): blocked; uptake after pre-treating with insulin (GLUT4; insulin 100 nM, 1 h): increased; in vivo fluorescence staining (GLUT2; [3]): much weaker fluorescence; in vivo fluorescence staining (GLUT2; wildtype zebrafish embryos): bright red fluorescence staining in regions of the developing brain
CCCCCCCCCCCCC/C=C/[C@@H](O)[C@H](CO)NC(=O)CCCCCNc1ccc([N+](=O)[O-])c2c1=NC(C)(C)N=2 [SCOTfluor-101, N-((2S,3R,E)-1,3-dihydroxyoctadec-4-en-2-yl)-6-((2,2-dimethyl-7-nitro-2H-benzo[d]imidazol-4-yl)amino)hexanamide] | – | – | – | – | no significant cytotoxicity | emission [1]: > 660 nm; increase in emission on incubation with liposomes ([2]; phosphatidylcholine:cholesterol (7:1) liposomes vs PBS): over 15 fold; aggregation in water ([2]; water): minimal aggregation; co-localization (R) with ER Tracker Green (A549 cells; 15 min): 91%; co-localization (R) with LysoTracker Blue (A549 cells; 15 min): 26%; co-localization (R) with LysoTracker Blue (A549 cells; after 3 h): 75%
Nitrobenzodioxazole [NBD, reference compound] | 0.55 | 15,400 M^−1cm^−1 | 486 | 542 | – | –
